One data set deals with LLC cells. Put plainly: Flow cytometry binding to LLC cells. As to conditions: higher PD-L1 expression than MC38. The class given is cell-based, mouse. Here is the method:
(§1) Fluorescence-based ELISA and cell-based tests were used to examine the binding specificity of PPL-C to PD-L1. To perform the ELISA, fluorescent plates were coated with 100 μL human PD-L1 (hPD-L1), mouse PD-L1 (mPD-L1), and BSA in PBS (pH 7.4) overnight at 4°C, respectively. Blocked the plates with 1% BSA (in PBST) for an hour at room temperature and rinsed twice with PBST. Then added peptides (20 μmol/L FITC-labeled PPL-C/Control peptide) and incubated for 1.5 hours at room temperature. With excitation at 488 nm and emission at 515 nm, the Cytation 3 instrument (BioTek) was used to measure the relative fluorescence intensity. Both attached and detached cells were used in the cell-based flow cytometry analysis. […] After that, cells were treated for 40 minutes at 4°C on an inversion shaker with PD-L1 antibody from Biolegend and 4 μmol/L FITC-labeled peptides (PPL-C/Control peptide). Each tube was washed twice with PBS following incubation and flow cytometry was carried out using a FACSort device. FlowJo software was used to evaluate the data that was acquired.

Another data set deals with MC38 cells. The data set can be described thus: Flow cytometry binding to MC38 cells. The conditions noted are these: relatively low PD-L1 expression. The class given is cell-based, mouse. The protocol:
as §1

Data set [1] deals with PD-L1-mediated suppression of CD4+ T cells. The data set can be described thus: T-cell activation assay (CD4+ T cells on anti-CD3/PD-L1 coated plates). Format: cell-based, mouse. The protocol:
Following the manufacturer’s instructions, mouse peripheral blood mononuclear cells (PBMCs) were isolated from a healthy mouse using separation fluid. Then, CD4 (L3T4) MicroBeads were used to separate CD4+ T cells from PBMCs, and a CD4-PE/Cy5 antibody was employed to determine effectiveness. Cells were adjusted to a concentration of 5×10^5 cells/mL in IMDM supplemented with 10% FBS and 20 ng/mL IL-2 to produce CD4+ T-cell blasts. A 1:1 ratio of mouse T-activator CD3/CD28 beads was introduced to the cells. Every other day, new media was added, and on day 7, cells were collected and stored for later use. 100 μL of anti-mouse CD3 (1 μg/mL) were applied to each well and incubated at 4°C overnight. Next, the wells were rinsed twice with […] of PBS. The wells were then filled with 100 μL of PD-L1 […] and the plates were incubated at 37°C for 3 hours before receiving two PBS washes. Then, varying quantities of PD-L1 monoclonal antibodies and peptides (PPL-C or control peptide) were added to the appropriate wells, and the plates were incubated at 37°C for an hour. The wells were then washed twice with PBS. Finally, CD4^+ T cells (5×10^4 cells/well) were added, then centrifugated the plate at 1,000 RMP for 2 min. The cells were then cultured for three days at 37°C in a humidified incubator with 5% CO2. A mouse IFN-γ ELISA Kit was used to assess the quantity of IFN-γ in culture supernatant. […]

Another data set has as its system CD4+ T cells in MLR. Put plainly: Mixed lymphocyte reaction (DCs, CT26 tumor cells, CD4+ T cells). The conditions noted are these: 20 μmol/L, versus control and control peptides, day 3, n = 3. Format: cell-based, mouse. Here is the method: Fresh PBMCs were cultured in IMDM at 37°C for 2 hours and washed twice in PBS. Then cells were cultured in IMDM supplemented with 10% FBS, 25 ng/mL GM-CSF, and 50 ng/mL IL-4. Fresh medium was added every three days. TNF-α (50 ng/mL) was added on the sixth day to stimulate the maturation of dendritic cells (DCs) for 24 hours. The mature DCs were then frozen to be harvested later. Solid tumor tissues from the CT26 tumor-bearing animal have been removed and fragmented to collect tumor cells. In RPMI 1640 medium supplemented with 10% FBS, 2 mM L-glutamine, […] streptomycin, and 200 U/mL penicillin, these fragments were subjected to digestion with a combination of triple enzymes (collagenase, DNase, and hyaluronidase) for a maximum of 2 hours. The resultant cell suspension was then grown in complete RPMI 1640 medium at 37°C with 5% CO2 for 24 hours. The goal of this culture phase was to re-establish PD-L1 expression on the tumor cell surface since collagenase digestion may have destroyed it. DCs and tumor cells were both given a 2-hour treatment with mitomycin C (MMC) at a dosage of 100 μg/mL before the start of mixed lymphocyte responses (MLR). After thawing, the CD4+ T cells were cultured for overnight. […] Cell growth and IFN-γ levels in culture supernatants were measured on day 3.

For data set [2], the system named is splenic lymphocyte subsets of CT26-bearing Balb/c mice. The data set can be described thus: Flow cytometry of spleen lymphocytes of CT26-bearing mice after treatment. The class given is in vivo. As to conditions: mouse, in vivo. Here is the method:
(§2) The mice’s tumor volumes were measured by calipers after they were randomly allocated to various treatment groups. Every day tumor volumes were measured along axes (a and b) that are orthogonal to one another, and they were estimated by the equation tumor volume = π/6 × a × b^2. After the tumor was established (approximately 7 days), each group was subcutaneously injected with PPL-C (6 or 11 mg/kg), control peptide (11 mg/kg), endotoxin-free PD-L1 antibody (200 μg), or control antibody, following specific treatment procedures outlined in the flow chart. The Kaplan-Meier technique was used to determine survival differences for each group, and the log-rank test using the survival R package version 2.38-3 was applied to get the overall p-value.
To differentiate lymphocytes, spleen monocytes were separated via isodensity centrifugation. For flow cytometry evaluation, cell-surface and intracellular staining was achieved through reagents from BD Biosciences or Biolegend, following previously described protocols. Re-suspending the 1× 10^6 cells in 100 μL of PBS before incubating them with the appropriate antibodies. Data were collected using a BD Biosciences FACSCalibur flow cytometer, Germany, and analyzed using FlowJo 7.6 software, USA. Based on scatter signals and 7-Amino-actinomycin D fluorescence, dead cells, and cell debris were removed from the study.

For a further data set, the system named is CT26 cells. Put plainly: CCK8 proliferation assay on CT26 cells. The conditions noted are these: 0.1-1 mg/ml, 8 or 24 h, CCK8, n = 3. The class given is cell-based, mouse. Here is the method: To observe the impact of PPL-C on tumor cells and lymphocyte proliferation, the Counting Kit 8 (CCK8) reagent was employed. 20,000 cells/well were cultured in 96-well plates. Cells were treated for 8 or 24 hours with PPL-C (0.1, 0.25, 0.5, and 1 mg/ml) or not. Following the manufacturer guidelines, 10 µl of the CCK8 reagent (from Biotech Bioengineering, Cat: E606335) was applied to each well two hours before the incubation period ended. Using an ELISA plate reader from Molecular Devices (United States) the sample absorbance was calculated at 450 nm. To ensure repeatability, each experiment was replicated. By assessing absorbance at 450 nm, the CCK8 assay measures cell viability and proliferation.

The subject of another data set is CT26 tumor. The class given is in vivo, mouse. The protocol: The investigators conducting the animal studies were not blinded. […] The mice were then randomized into different treatment groups.
as §2

On to `CC(C)[C@H](NC(=O)[C@H](CO)NC(=O)[C@@H](NC(=O)[C@@H](N)CO)C(C)C)C(=O)N[C@@H](CO)C(=O)N[C@@H](Cc1c[nH]cn1)C(=O)N[C@@H](Cc1ccccc1)C(=O)N[C@@H](CCC(N)=O)C(=O)N[C@@H](CCCCN)C(=O)N[C@H](C(=O)N[C@@H](Cc1c[nH]c2ccccc12)C(=O)N[C@H](C(=O)N[C@H](C(=O)NCC(=O)NCC(=O)NCC(=O)N[C@@H](CO)C(=O)N[C@@H](CCCCN)C(N)=O)C(C)C)C(C)C)C(C)C` [PPL-C], for which the “Affinity to LLC cells” value in the data set on LLC cells is “higher affinity”. Further, the “Affinity to MC38 cells” value in the data set on MC38 cells is listed as “low affinity”. Moreover, the T-cell proliferation entry in data set [1] (20 μmol/L, CCK-8, n = 3) was “increased significantly”. The “IFN-γ release of CD4+ T lymphocytes” value in data set [1] (versus control peptide, 3 days, ELISA, n = 3) is listed as “significant increase”. For the same compound, the “IFN-γ release in MLR” value in the data set with CD4+ T cells in MLR is “significantly higher release”. In data set [2], the “Percentage of NK cells in spleen (CD49b/Nkp46, upper right quadrant)” value is reported as 7.79%. Also, in the data set with CT26 cells, the “Growth of CT26 cells after peptide administration (direct cytotoxicity)” value is listed as “grew normally”. Besides, the “Increase in survival time of CT26 tumor-bearing mice” value in the data set with CT26 tumor (11 mg/kg s.c. around the tumor, dosing-schedule study, saline as negative control) was “approximately 50%”. In addition, the “Increase in survival time compared to the control peptide” value in the data set on CT26 tumor (reduced dose, s.c. around the tumor every day or every other day) was “approximately 50%”. The “Survival time of CT26 tumor-bearing mice” value in the data set on CT26 tumor (reduced dose, s.c. around the tumor every day or every other day, n = 6, P<0.001) amounted to 81 days.

Source of the values: publication PMC11091243, “PD-L1 targeted peptide demonstrates potent antitumor and immunomodulatory activity in cancer immunotherapy” (Frontiers in Immunology, 2024).
